Measurements as given in patent publication US11161856B2 (H. Lundbeck A/S, priority 2017, dated 2021).

Key:
MGLL = target: T1, MGLL (Mus musculus, UniProt O35678); assay: In vitro competitive activity-based protein profiling, mouse brain proteome (MGLL); assay type: biochemical; details: for % Inh MGLL Brain (Mouse, μM): concentration not given (μM)
T1 construct: Brain; from tissue; host or cells: mouse brain proteome
T1 sequence (O35678 1-303): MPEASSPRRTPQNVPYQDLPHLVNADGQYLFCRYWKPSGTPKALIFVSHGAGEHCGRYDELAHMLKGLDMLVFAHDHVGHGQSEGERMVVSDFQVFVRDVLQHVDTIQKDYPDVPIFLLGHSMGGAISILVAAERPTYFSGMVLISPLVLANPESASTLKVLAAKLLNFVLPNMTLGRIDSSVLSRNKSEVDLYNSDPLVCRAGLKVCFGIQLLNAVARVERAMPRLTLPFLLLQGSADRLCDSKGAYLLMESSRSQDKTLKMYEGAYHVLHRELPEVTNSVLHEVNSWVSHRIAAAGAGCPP

ABHD6 = target: T2, ABHD6 (Mus musculus, UniProt Q8R2Y0); assay: In vitro competitive activity-based protein profiling, mouse brain proteome (ABHD6); assay type: biochemical; details: for % Inh ABHD6 Brain (Mouse, μM): mouse brain proteome, concentration not given (μM)
T2 construct: Brain; from tissue; host or cells: mouse brain proteome
T2 sequence (Q8R2Y0 1-336): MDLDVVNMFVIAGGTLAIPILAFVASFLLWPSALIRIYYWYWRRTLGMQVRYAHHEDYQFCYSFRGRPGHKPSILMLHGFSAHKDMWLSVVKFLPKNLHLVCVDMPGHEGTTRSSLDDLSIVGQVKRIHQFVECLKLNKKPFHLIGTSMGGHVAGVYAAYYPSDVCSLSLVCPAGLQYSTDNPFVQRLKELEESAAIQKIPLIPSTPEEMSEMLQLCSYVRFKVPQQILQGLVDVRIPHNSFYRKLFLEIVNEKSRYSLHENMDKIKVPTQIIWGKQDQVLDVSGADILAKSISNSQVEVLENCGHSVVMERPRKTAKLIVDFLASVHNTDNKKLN
Experimental: [The source words this procedure for another target and reports this target under the same test.] In Vitro Competitive Activity-Based Protein Profiling.
Proteomes (human prefrontal cortex or cell membrane fractions) (50 μL, 1.0 mg/mL total protein concentration) were preincubated with varying concentrations of inhibitors at 37° C. After 30 min, FP-Rh or HT-01 (1.0 μL, 50 μM in DMSO) was added and the mixture was incubated for another 30 min at room temperature. Reactions were quenched with SDS loading buffer (15 μL-4×) and run on SDS-PAGE.

| Structure (SMILES) | % Inh MGLL Brain (Mouse, μM) (MGLL) | % Inh ABHD6 Brain (Mouse, μM) (ABHD6) | IC50 (ABHD6; mouse proteome) [nM] | inhibition at 10 µM (MGLL; at 10 uM, read-out: % Inh MGLL Brain (Mouse)) [%] |
| --- | --- | --- | --- | --- |
| CS(=O)(=O)N1CCc2cccc(CN3CCC4(CC3)CCN(C(=O)OC(C(F)(F)F)C(F)(F)F)C4)c2C1 [Example 217, 1,1,1,3,3,3-Hexafluoropropan-2-yl 8-((2-(methylsulfonyl)-1,2,3,4-tetrahydroisoquinolin-8-yl)methyl)-2,8-diazaspiro[4.5]decane-2-carboxylate] | ### (### is ≥75%) | ### (### is ≥75%) |  |  |
| O=C(OC(C(F)(F)F)C(F)(F)F)N1CCC2(CC1)CN(Cc1ccccc1N1CCOCC1)C2 [Example 96, 1,1,1,3,3,3-Hexafluoropropan-2-yl 2-(2-morpholinobenzyl)-2,7-diazaspiro[3,5]nonane-7-carboxylate] | ### (### is ≥75%) | ### (### is ≥75%) |  |  |
| CC(=O)N1CCC2(CCN(c3cc(C(F)(F)F)ccc3CN3CCN(C(=O)OC(C(F)(F)F)C(F)(F)F)CC3)CC2)C1 [Example 189, 1,1,1,3,3,3-Hexafluoropropan-2-yl 4-(2-(2-acetyl-2,8-diazaspiro[4.5]decan-8-yl)-4-(trifliioromethyl)benzyl) piperazine-1-carboxylate] | ### (### is ≥75%) | # (# is ≤25%) |  |  |
| O=C(OC(C(F)(F)F)C(F)(F)F)N1CCC2(CCN(Cc3ccc(Cl)cc3N3CCCCC3)CC2)C1 [Example 191, 1,1,1,3,3,3-Hexafluoropropan-2-yl 8-(4-chloro-2-(piperidin-1-yl)benzyl)-2,8-diazaspiro[4.5]decane-2-carboxylate] | ### (### is ≥75%) | # (# is ≤25%) |  |  |
| O=C(OC(C(F)(F)F)C(F)(F)F)N1CCC2(CC1)CN(Cc1c(N3CCCCC3)cccc1C(F)(F)F)C2 [Example 41, 1,1,1,3,3,3-Hexafluoropropan-2-yl 2-(2-(piperidin-1-yl)-6-(trifluoromethyl)benzyl)-2,7-diazaspiro[3.5]nonane-7-carboxylate] | ### (### is ≥75%) | ## (## is between 25 and 75%) | 100 to 1000 |  |
| Cc1cc(-c2ccccc2)ccc1CN1CCC2(CC1)CN(C(=O)OC(C(F)(F)F)C(F)(F)F)C2 [Example 19, 1,1,1,3,3,3-Hexafluoropropan-2-yl 7-((3-methyl-[1,1′-biphenyl]-4-yl)methyl)-2,7-diazaspiro[3.5]nonane-2-carboxylate] | ## (## is between 25 and 75%) | ### (### is ≥75%) |  |  |
| O=C(OC(C(F)(F)F)C(F)(F)F)N1CCC2(CC1)CN(Cc1c(Cl)cccc1N1CCOCC1)C2 [Example 46, 1,1,1,3,3,3-Hexafluoropropan-2-yl 2-(2-chloro-6-morpholinobenzyl)-2,7-diazaspiro[3.5]nonane-7-carboxylate] | ### (### is ≥75%) | ### (### is ≥75%) |  |  |
| O=C(O)C1CCN(c2cc(C(F)(F)F)ccc2CN2CCC3(CC2)CCN(C(=O)OC(C(F)(F)F)C(F)(F)F)C3)CC1 [Example 195, l-(2-((2-(((l,1,1,3,3,3-Hexafluoropropan-2-yl)oxy)carbonyl)-2,8-diazaspino[4.5]decan-8-yl)melhyl)-5-(trifluoromethyl)phenyl)piperidine-4-carboxylic acid] | ### (### is ≥75%) | # (# is ≤25%) |  |  |
| CS(=O)(=O)N1CC2(CCN(c3cc(Cl)cc(CN4CCCC45CN(C(=O)OC(C(F)(F)F)C(F)(F)F)C5)c3)CC2)C1 [Example 240, 1,1,1,3,3,3-Hexafluoropropan-2-yl 5-(3-chloro-5-(2-(methylsulfonyl)-2,7-diazaspiro[3.5]nonan-7-yl)benzyl)-2,5-diazaspiro[3.4]octane-2-carboxylate] | ### (### is ≥75%) | ### (### is ≥75%) |  |  |
| O=C(OC(C(F)(F)F)C(F)(F)F)N1CCC2(CC1)CN(Cc1c(N3CCOCC3)cccc1C(F)(F)F)C2 [Example 43, 1,1,1,3,3,3-Hexafluoropropan-2-yl 2-(2-morpholino-6-(trifluoromethyl)benzyl)-2,7-diazaspiro[3.5]nonane-7-carboxylate] | ### (### is ≥75%) | ## (## is between 25 and 75%) |  |  |
| COc1cccc(CN2CC3(CCN(C(=O)OC(C(F)(F)F)C(F)(F)F)CC3)C2)c1 [Example 87, 1,1,1,3,3,3-Hexafluoropropan-2-yl 2-(3-methoxybenzyl)-2,7-diazaspiro[3.5]nonane-7-carboxylate] | ### (### is ≥75%) | ### (### is ≥75%) |  |  |

Continued, values first:

| % Inh MGLL Brain (Mouse, μM) (MGLL) | % Inh ABHD6 Brain (Mouse, μM) (ABHD6) | IC50 (ABHD6; mouse proteome) [nM] | inhibition at 10 µM (MGLL; at 10 uM, read-out: % Inh MGLL Brain (Mouse)) [%] | Structure (SMILES) |
| --- | --- | --- | --- | --- |
| ### (### is ≥75%) | ### (### is ≥75%) |  |  | O=C(OC(C(F)(F)F)C(F)(F)F)N1CCC2(CC1)CN(Cc1c(Cl)cccc1N1CCCC1)C2 [Example 42, 1,1,1,3,3,3-Hexafluoropropan-2-yl 2-(2-chloro-6-(pyrrolidin-1-yl)benzyl)-2,7-diazaspiro[3.5]nonane-7-carboxylate] |
| ## (## is between 25 and 75%) | # (# is ≤25%) |  |  | CC(=O)N1CCCc2cccc(CN3CCC4(CC3)CCN(C(=O)OC(C(F)(F)F)C(F)(F)F)C4)c21 [Example 193, 1,1,1,3,3,3-Hexafluoropropan-2-yl 8-((1-acetyl-1,2,3,4-tetrahydroquinolin-8-yl)methyl)-2,8-diazaspiro[4.5]decane-2-carboxylate] |
| # (# is ≤25%) | ### (### is ≥75%) |  |  | O=C(O)C1CCN(c2ccc(CN3CC4(CCN(C(=O)OC(C(F)(F)F)C(F)(F)F)CC4)C3)cc2)CC1 [Example 74, 1-(4-((7-(((1,1,1,3,3,3-Hexafluoropropan-2-yl)oxy)carbonyl)-2,7-diazaspiro[3.5]nonan-2-yl)methyl)phenyl)piperidine-4-carboxylic acid] |
| ### (### is ≥75%) | # (# is ≤25%) |  |  | CS(=O)(=O)N1CC2(CCN(c3cc(Cl)ccc3CN3CCN(C(=O)OC(C(F)(F)F)C(F)(F)F)CC3)C2)C1 [Example 175, 1,1,1,3,3,3-Hexafluoropropan-2-yl 4-(4-chloro-2-(2-(methylsulfonyl)-2,6-diazaspiro[3.4]octan-6-yl)benzyl)piperazine-1-carboxylate] |
| ### (### is ≥75%) | ### (### is ≥75%) |  |  | O=C(OC(C(F)(F)F)C(F)(F)F)N1CCC2(CC1)CN(Cc1cccc(N3CCCC3)c1)C2 [Example 94, 1,1,1,3,3,3-Hexafluoropropan-2-yl 2-(3-(pyrrolidin-1-yl)benzyl)-2,7-diazaspiro[3.5]nonane-7-carboxylate] |
| ### (### is ≥75%) | # (# is ≤25%) |  |  | CC(=O)N1CCCC12CCN(c1cc(C(F)(F)F)ccc1CN1CCN(C(=O)OC(C(F)(F)F)C(F)(F)F)CC1)CC2 [Example 208, 1,1,1,3,3,3-Hexafluoropropan-2-yl 4-(2-(1-acetyl-1,8-diazaspiro[4.5]decan-8-yl)-4-(trifluoromethyl)benzyl) piperazine-1-carboxylate] |
| ### (### is ≥75%) | # (# is ≤25%) |  |  | CN1CC2CN(c3cc(Cl)ccc3CN3CCN(C(=O)OC(C(F)(F)F)C(F)(F)F)CC3)CC2C1 (stereo not drawn) [Example 206, 1,1,1,3,3,3-Hexafluoropropan-2-yl 4-(4-chloro-2-(5-methylhexahydropyrrolo[3,4-c]pyrrol-2(1H)-yl)benzyl)piperazine-1-carboxylate] |
|  | ### (### is ≥75%) |  | 25 to 75 | CS(=O)(=O)N1CCC2(CCN(c3cc(Cl)cc(CN4CCCC45CN(C(=O)OC(C(F)(F)F)C(F)(F)F)C5)c3)CC2)C1 [Example 232] |
| ### (### is ≥75%) | # (# is ≤25%) |  |  | CCN1CC2(CCN(c3cc(Cl)ccc3CN3CCN(C(=O)OC(C(F)(F)F)C(F)(F)F)CC3)C2)C1 [Example 173, 1,1,1,3,3,3-Hexafluoropropan-2-yl 4-(4-chloro-2-(2-ethyl-2,6-diazaspiro[3.4]octan-6-yl)benzyl)piperazine-1-carboxylate] |
| ### (### is ≥75%) | ## (## is between 25 and 75%) |  |  | O=C(OC(C(F)(F)F)C(F)(F)F)N1CCC2(CC1)CN(Cc1ccc(Cl)cc1N1CCCCC1)C2 [Example 38, 1,1,1,3,33-Hexafluoropropan-2-yl 2-(4-chloro-2-(piperidin-1-yl)benzyl)-2,7-diazaspiro[3.5]nonane-7-carboxylate] |
| ## (## is between 25 and 75%) | ### (### is ≥75%) |  |  | O=C(OC(C(F)(F)F)C(F)(F)F)N1CC2(CCN(Cc3ccc(C(F)(F)F)cc3)CC2)C1 [Example 56, 1,1,1,3,3,3-Hexafluoropropan-2-yl 7-(4-(trifluoromethyl)benzyl)-2,7-diazaspiro[3.5]nonane-2-carboxylate] |
